We go through 16 molecules from patent US20240390340A1 (INCYTE CORPORATION, priority 2023, published 2024).

One series addresses KRAS G12D (Homo sapiens, UniProt P01116, G12D). The experiment in a line: GDP-GTP exchange assay (bodipy-GDP/GppNHp, SOS1), KRAS G12D. The series is classed as biochemical.
The target in a further series is KRAS G12V (Homo sapiens, UniProt P01116, G12V). Kind of series: GDP-GTP exchange assay (bodipy-GDP/GppNHp, SOS1), KRAS G12V. The series is classed as biochemical.
The next series concerns Caco-2 cells. Kind of series: Caco2 assay (Papp A-B). The settings on record: test compound 50 μM, 120 min, 37° C. The series is classed as in vitro ADME. Summed up:
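Caco-2 monolayers grown 22–25 days on Transwells (TEER 300 Ω·cm^2) were dosed apically with 50 μM compound in HBSS; basolateral receiver held HBSS with 4% BSA. Incubation 120 min at 37° C, 5% CO2; donor and receiver samples quantified by LCMS and Papp A-B calculated from receiver-side cumulative flux slope.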

[1] abbreviates: Table H, column G12D, for compounds isolated as several atropisomers/diastereoisomers the value for the most potent isomer is quoted, read-out: KRAS G12D exchange assay IC50.
The mark [2] stands for this setting: Table H, column G12V, for compounds isolated as several atropisomers/diastereoisomers the value for the most potent isomer is quoted, read-out: KRAS G12V exchange assay IC50.

Like-named read-outs stand apart in the source and are kept apart here.

KRAS G12V, sequence (P01116 1-188 isoform P01116-2 G12V): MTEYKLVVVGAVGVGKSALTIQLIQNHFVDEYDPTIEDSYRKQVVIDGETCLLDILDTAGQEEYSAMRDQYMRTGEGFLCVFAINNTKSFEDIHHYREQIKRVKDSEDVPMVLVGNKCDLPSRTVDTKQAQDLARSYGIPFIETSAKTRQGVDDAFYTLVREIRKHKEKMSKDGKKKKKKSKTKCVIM
KRAS G12D, sequence (P01116 1-188 isoform P01116-2 G12D): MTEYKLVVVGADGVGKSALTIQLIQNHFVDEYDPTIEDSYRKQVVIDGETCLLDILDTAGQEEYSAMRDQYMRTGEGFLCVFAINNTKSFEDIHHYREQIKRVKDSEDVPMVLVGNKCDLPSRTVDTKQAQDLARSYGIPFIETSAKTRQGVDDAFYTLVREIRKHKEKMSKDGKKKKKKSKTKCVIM

As for `Cc1nc2c(F)c(-c3cccc(Cl)c3Cl)c(CCC#N)cc2c2c1cc([C@H]1C[C@](C)(OCc3ccccc3)CN1C(=O)C1CC1)n2[C@H]1[C@H]2CN[C@@H]1C2` [Example 81, 3-(2-((2R,4S)-4-(Benzyloxy)-1-(cyclopropanecarbonyl)-4-methylpyrrolidin-2-yl)-1-((1R,4R,5S)-2-azabicyclo[2.1.1]hexan-5-yl)-7-(2,3-dichlorophenyl)-6-fluoro-4-methyl-1H-pyrrolo[3,2-c]quinolin-8-yl)propanenitrile], the IC50 on KRAS G12D (bodipy-loaded KRAS G12D 2.5 nM, 4 h pre-incubation, value for the most potent isomer quoted for certain compounds, read-out: G12D (KRAS G12D exchange assay IC50)) was not above 100 nM; on KRAS G12V (KRAS G12V mutant, value for the most potent isomer quoted for certain compounds, read-out: G12V (KRAS G12V exchange assay IC50)), not above 100 nM. The Caco-2 result in the series with Caco-2 cells was “+++ (a Caco-2 value of >1)”.
With `Cc1nc2c(F)c(-c3cccc(Cl)c3Cl)c(CCC#N)cc2c2c1cc([C@H]1C[C@H](Oc3ccnc(OC(F)F)c3)CN1C(=O)C1CC1)n2[C@H]1[C@H]2CN[C@@H]1C2` [Example 40, 3-(1-((1R,4R,5S)-2-Azabicyclo[2.1.1]hexan-5-yl)-2-((2R,4S)-1-(cyclopropanecarbonyl)-4-((2-(difluoromethoxy)pyridin-4-yl)oxy)pyrrolidin-2-yl)-7-(2,3-dichlorophenyl)-6-fluoro-4-methyl-1H-pyrrolo[3,2-c]quinolin-8-yl)propanenitrile], the IC50 on KRAS G12D (setting [1]) and on KRAS G12V (setting [2]) was not above 100 nM each time. For the same molecule, the Caco-2 entry in the series on Caco-2 cells is “+ (a Caco-2 value of ≤0.5)”.
Regarding `Cc1nc2c(F)c(-c3cccc(Cl)c3Cl)c(CCC#N)cc2c2c1cc([C@H]1C[C@H](Oc3cccnc3F)CN1C(=O)C1CC1)n2[C@H]1[C@H]2CN[C@@H]1C2` [Example 39, 3-(1-((1R,4R,5S)-2-Azabicyclo[2.1.1]hexan-5-yl)-2-((2R,4S)-1-(cyclopropanecarbonyl)-4-((2-fluoropyridin-3-yl)oxy)pyrrolidin-2-yl)-7-(2,3-dichlorophenyl)-6-fluoro-4-methyl-1H-pyrrolo[3,2-c]quinolin-8-yl)propanenitrile], the IC50 on KRAS G12D (setting [1]) and at KRAS G12V (setting [2]) was not above 100 nM throughout. In addition, in the series with Caco-2 cells, the Caco-2 entry is reported as “++ (a Caco-2 value of >0.5 but ≤1)”.
As to `COC1CCC(O[C@H]2C[C@H](c3cc4c(C)nc5c(F)c(-c6cccc(Cl)c6Cl)c(CCC#N)cc5c4n3[C@H]3[C@H]4CN[C@@H]3C4)N(C(=O)C3CC3)C2)C1` (stereo partly drawn) [Example 23], the IC50 on KRAS G12D (setting [1]) and at KRAS G12V (setting [2]) was not above 100 nM in each case. In addition, in the series with Caco-2 cells, the Caco-2 entry was “++ (a Caco-2 value of >0.5 but ≤1)”.
Take `COc1cc(O[C@H]2C[C@H](c3cc4c(C)nc5c(F)c(-c6cccc(Cl)c6Cl)c(CCC#N)cc5c4n3[C@H]3[C@H]4CN[C@@H]3C4)N(C(=O)C3CC3)[C@@H]2C)ccn1` [Example 41, 3-(1-((1R,4R,5S)-2-Azabicyclo[2.1.1]hexan-5-yl)-2-((2R,4S,5R)-1-(cyclopropanecarbonyl)-4-((2-methoxypyridin-4-yl)oxy)-5-methylpyrrolidin-2-yl)-7-(2,3-dichlorophenyl)-6-fluoro-4-methyl-1H-pyrrolo[3,2-c]quinolin-8-yl)propanenitrile]: the IC50 at KRAS G12D (setting [1]) and on KRAS G12V (setting [2]) was not above 100 nM throughout. For the same molecule, the Caco-2 entry in the series on Caco-2 cells is “++ (a Caco-2 value of >0.5 but ≤1)”.
Consider `Cc1nc2c(F)c(-c3cccc(Cl)c3Cl)c(CCC#N)cc2c2c1cc([C@H]1C[C@H](OC3CCOCC3)CN1C(=O)C1CC1)n2[C@H]1[C@H]2CN[C@@H]1C2` [Example 22], for which the IC50 at KRAS G12D (setting [1]) and at KRAS G12V (setting [2]) was not above 100 nM throughout. In the series on Caco-2 cells, the Caco-2 entry is reported as “+ (a Caco-2 value of ≤0.5)”.
Consider `Cc1nonc1CO[C@H]1C[C@H](c2cc3c(C)nc4c(F)c(-c5cccc(Cl)c5Cl)c(CCC#N)cc4c3n2[C@H]2[C@H]3CN[C@@H]2C3)N(C(=O)C2CC2)C1` [Example 33], for which the IC50 on KRAS G12D (setting [1]) and on KRAS G12V (setting [2]) was not above 100 nM throughout. Also, in the series with Caco-2 cells, the Caco-2 entry is given as “+ (a Caco-2 value of ≤0.5)”.
With `COc1nccc(O[C@H]2C[C@H](c3cc4c([C@@H](C)O)nc5c(F)c(-c6cccc(Cl)c6Cl)c(CCC#N)cc5c4n3[C@H]3[C@H]4CN[C@@H]3C4)N(C(=O)C3CC3)C2)c1F` [Example 53, 3-(1-((1R,4R,5S)-2-Azabicyclo[2.1.1]hexan-5-yl)-2-((2R,4S)-1-(cyclopropanecarbonyl)-4-((3-fluoro-2-methoxypyridin-4-yl)oxy)pyrrolidin-2-yl)-7-(2,3-dichlorophenyl)-6-fluoro-4-((R)-1-hydroxyethyl)-1H-pyrrolo[3,2-c]quinolin-8-yl)propanenitrile], the IC50 on KRAS G12D (setting [1]) and at KRAS G12V (setting [2]) was not above 100 nM each time. In the series on Caco-2 cells, the Caco-2 entry is on record as “++ (a Caco-2 value of >0.5 but ≤1)”.
Regarding `Cc1nc2c(F)c(-c3cccc(Cl)c3Cl)c(CCC#N)cc2c2c1cc([C@H]1C[C@H](n3cc(C45CC(C4)C5)nn3)CN1C(=O)C1CC1)n2[C@H]1[C@H]2CN[C@@H]1C2` [Example 68, 3-(2-((2R,4S)-4-(4-(Bicyclo[1.1.1]pentan-1-yl)-1H-1,2,3-triazol-1-yl)-1-(cyclopropanecarbonyl)pyrrolidin-2-yl)-1-((1R,4R,5S)-2-azabicyclo[2.1.1]hexan-5-yl)-7-(2,3-dichlorophenyl)-6-fluoro-4-methyl-1H-pyrrolo[3,2-c]quinolin-8-yl)propanenitrile], the 50% inhibitory concentration (IC50) on KRAS G12D (setting [1]) and on KRAS G12V (setting [2]) was not above 100 nM throughout. Also, the Caco-2 result with Caco-2 cells is listed as “+ (a Caco-2 value of ≤0.5)”.
Take `Cc1nc2c(F)c(-c3cccc(Cl)c3Cl)c(CCC#N)cc2c2c1cc([C@H]1C[C@H](OCc3ccccc3C(F)F)CN1C(=O)C1CC1)n2[C@H]1[C@H]2CN[C@@H]1C2` [Example 18]: the IC50 on KRAS G12D (setting [1]) and at KRAS G12V (setting [2]) was not above 100 nM each time. Also, the Caco-2 result with Caco-2 cells is given as “+ (a Caco-2 value of ≤0.5)”.
Take `Cc1nc2c(F)c(-c3cccc(Cl)c3Cl)c(CCC#N)cc2c2c1cc([C@H]1C[C@H](Oc3cccc(C#N)c3)CN1C(=O)C1CC1)n2[C@H]1[C@H]2CN[C@@H]1C2` [Example 45, 3-(((3S,5R)-5-(1-((1R,4R,5S)-2-Azabicyclo[2.1.1]hexan-5-yl)-8-(2-cyanoethyl)-7-(2,3-dichlorophenyl)-6-fluoro-4-methyl-1H-pyrrolo[3,2-c]quinolin-2-yl)-1-(cyclopropanecarbonyl)pyrrolidin-3-yl)oxy)benzonitrile]: the IC50 at KRAS G12D (setting [1]) and on KRAS G12V (setting [2]) was not above 100 nM in each case. For the same molecule, the Caco-2 entry with Caco-2 cells was “+ (a Caco-2 value of ≤0.5)”.
In the case of `Cc1nc2c(F)c(-c3cccc(Cl)c3Cl)c(CCC#N)cc2c2c1cc([C@H]1C[C@H](Oc3ccnc4ccsc34)CN1C(=O)C1CC1)n2[C@H]1[C@H]2CN[C@@H]1C2` [Example 55, 3-(1-((1R,4R,5S)-2-Azabicyclo[2.1.1]hexan-5-yl)-2-((2R,4S)-1-(cyclopropanecarbonyl)-4-(thieno[3,2-b]pyridin-7-yloxy)pyrrolidin-2-yl)-7-(2,3-dichlorophenyl)-6-fluoro-4-methyl-1H-pyrrolo[3,2-c]quinolin-8-yl)propanenitrile], the IC50 at KRAS G12D (setting [1]) and at KRAS G12V (setting [2]) was not above 100 nM in each case. For the same molecule, the Caco-2 entry in the series with Caco-2 cells was “+ (a Caco-2 value of ≤0.5)”.
Consider `Cc1nc2c(F)c(-c3cccc(Cl)c3Cl)c(CCC#N)cc2c2c1cc([C@H]1C[C@H](Oc3cccnc3OC(F)F)CN1C(=O)C1CC1)n2[C@H]1[C@H]2CN[C@@H]1C2` [Example 37, 3-(1-((1R,4R,5S)-2-Azabicyclo[2.1.1]hexan-5-yl)-2-((2R,4S)-1-(cyclopropanecarbonyl)-4-((2-(difluoromethoxy)pyridin-3-yl)oxy)pyrrolidin-2-yl)-7-(2,3-dichlorophenyl)-6-fluoro-4-methyl-1H-pyrrolo[3,2-c]quinolin-8-yl)propanenitrile], for which the IC50 at KRAS G12D (setting [1]) and at KRAS G12V (setting [2]) was not above 100 nM throughout. Moreover, the Caco-2 entry in the series with Caco-2 cells was “+ (a Caco-2 value of ≤0.5)”.
Turning to `COc1ncccc1O[C@H]1C[C@H](c2cc3c(C)nc4c(F)c(-c5cccc(Cl)c5Cl)c(CCC#N)cc4c3n2[C@H]2[C@H]3CN[C@@H]2C3)N(C(=O)C2CC2)C1` [Example 1, 3-(1-((1R,4R,5S)-2-Azabicyclo[2.1.1]hexan-5-yl)-2-((2R,4S)-1-(cyclopropanecarbonyl)-4-((2-methoxypyridin-3-yl)oxy)pyrrolidin-2-yl)-7-(2,3-dichlorophenyl)-6-fluoro-4-methyl-1H-pyrrolo[3,2-c]quinolin-8-yl)propanenitrile], the IC50 on KRAS G12D (setting [1]) and on KRAS G12V (setting [2]) was not above 100 nM throughout. Also, the Caco-2 entry with Caco-2 cells was “+++ (a Caco-2 value of >1)”.
Consider `Cc1nc2c(F)c(-c3cccc(Cl)c3Cl)c(CCC#N)cc2c2c1cc([C@H]1C[C@H](n3nccn3)CN1C(=O)C1CC1)n2[C@H]1[C@H]2CN[C@@H]1C2` [Example 74, 3-(1-((1R,4R,5S)-2-Azabicyclo[2.1.1]hexan-5-yl)-2-((2R,4S)-1-(cyclopropanecarbonyl)-4-(2H-1,2,3-triazol-2-yl)pyrrolidin-2-yl)-7-(2,3-dichlorophenyl)-6-fluoro-4-methyl-1H-pyrrolo[3,2-c]quinolin-8-yl)propanenitrile], for which the IC50 at KRAS G12D (setting [1]) and on KRAS G12V (setting [2]) was not above 100 nM each time. Further, the Caco-2 entry in the series on Caco-2 cells is recorded as “++ (a Caco-2 value of >0.5 but ≤1)”.
Turning to `Cc1nc2c(F)c(-c3cccc(Cl)c3Cl)c(CCC#N)cc2c2c1cc([C@H]1C[C@H](n3nncc3C3CCCC3)CN1C(=O)C1CC1)n2[C@H]1[C@H]2CN[C@@H]1C2` [Example 71, 3-(1-((1R,4R,5S)-2-Azabicyclo[2.1.1]hexan-5-yl)-2-((2R,4S)-4-(5-cyclopentyl-1H-1,2,3-triazol-1-yl)-1-(cyclopropanecarbonyl)pyrrolidin-2-yl)-7-(2,3-dichlorophenyl)-6-fluoro-4-methyl-1H-pyrrolo[3,2-c]quinolin-8-yl)propanenitrile], the IC50 on KRAS G12D (setting [1]) and on KRAS G12V (setting [2]) was not above 100 nM throughout. Moreover, in the series on Caco-2 cells, the Caco-2 result is “+ (a Caco-2 value of ≤0.5)”.
